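48-hour exposure; five concentrations; linearly interpolated endpoints. The concentration for 50% growth inhibition is given as GI50. The concentration for full growth arrest is given as TGI.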
Experiments:
Test in all cases: NCI tumour cell line growth inhibition, 48 h
[1] = system: 786-0 renal
[2] = system: OVCAR-4 ovarian
[3] = system: TK-10 renal
[4] = system: NCI-H522 lung
[5] = system: NCI-H23 lung
[6] = system: T-47D breast
[7] = system: OVCAR-8 ovarian
[8] = system: M14 melanoma
[9] = system: SR leukemia
[10] = system: HS 578T breast
[11] = system: A549 NSCLC
[12] = system: U251 CNS
[13] = system: HT29 colon
[14] = system: OVCAR-3 ovarian
[15] = system: UACC-62 melanoma
[16] = system: SF-295 CNS
[17] = system: SW-620 colon
[18] = system: HCT-116 colon
[19] = system: SNB-19 CNS
[20] = system: CCRF-CEM leukemia
[21] = system: PC-3 prostate
[22] = system: KM12 colon
[23] = system: EKVX NSCLC
[24] = system: LOX IMVI melanoma
[25] = system: NCI-H460 lung
[26] = system: MDA-MB-231 breast
[27] = system: HL-60(TB) leukemia
[28] = system: BT-549 breast
[29] = system: SK-OV-3 ovarian

Question: With `Cc1ccc(C(=O)Nc2cc(-n3ccnc3C)cc(C(F)(F)F)c2)cc1C#Cc1cnc2cccnn12` as the compound, how does the GI50 [1] read?
Answer: The GI50 was 4.02 µM.

Question: What about the TGI [1] of the same compound?
Answer: The TGI was 11.9 µM.

Question: What about the GI50 [2] of the same compound?
Answer: The GI50 was 4.51 µM.

Question: And the TGI [2]?
Answer: Its TGI is 16.3 µM.

Question: And the GI50 [3]?
Answer: Its GI50 is 4.27 µM.

Question: And the TGI [3]?
Answer: The TGI was 14 µM.

Question: And the GI50 [4]?
Answer: The GI50 was 2.74 µM.

Question: And the TGI [4]?
Answer: The TGI was 9.44 µM.

Question: What about the GI50 [5] of the same compound?
Answer: The GI50 was 1.53 µM.

Question: What about the TGI [5] of the same compound?
Answer: The TGI was 12.2 µM.

Question: And the GI50 [6]?
Answer: Its GI50 is 4.24 µM.

Question: What about the TGI [6] of the same compound?
Answer: Its TGI is 12.6 µM.

Question: And the GI50 [7]?
Answer: The GI50 was 3.49 µM.

Question: What about the TGI [7] of the same compound?
Answer: Its TGI is 11.1 µM.

Question: And the GI50 [8]?
Answer: The GI50 was 0.924 µM.

Question: What about the TGI [8] of the same compound?
Answer: The TGI was 24.4 µM.

Question: What about the GI50 [9] of the same compound?
Answer: Its GI50 is 2.44 µM.

Question: And the TGI [9]?
Answer: The TGI was over 29.3 µM.

Question: What about the GI50 [10] of the same compound?
Answer: The GI50 was 1.12 µM.

Question: And the TGI [10]?
Answer: The TGI was 7.31 µM.

Question: What about the GI50 [11] of the same compound?
Answer: The GI50 was 3.01 µM.

Question: And the TGI [11]?
Answer: Its TGI is 13.5 µM.

Question: What about the GI50 [12] of the same compound?
Answer: The GI50 was 4.23 µM.

Question: What about the TGI [12] of the same compound?
Answer: The TGI was 13.4 µM.

Question: And the GI50 [13]?
Answer: Its GI50 is 0.848 µM.

Question: And the TGI [13]?
Answer: Its TGI is 4.94 µM.

Question: And the GI50 [14]?
Answer: The GI50 was 9.25 µM.

Question: What about the TGI [14] of the same compound?
Answer: The TGI was 29.1 µM.

Question: And the GI50 [15]?
Answer: The GI50 was 0.756 µM.

Question: What about the TGI [15] of the same compound?
Answer: Its TGI is 4.13 µM.

Question: What about the GI50 [16] of the same compound?
Answer: The GI50 was 3.13 µM.

Question: What about the TGI [16] of the same compound?
Answer: Its TGI is 8.7 µM.

Question: And the GI50 [17]?
Answer: The GI50 was 2.43 µM.

Question: And the TGI [17]?
Answer: Its TGI is over 29.3 µM.

Question: And the GI50 [18]?
Answer: The GI50 was 1.31 µM.

Question: What about the TGI [18] of the same compound?
Answer: The TGI was 8.25 µM.

Question: What about the GI50 [19] of the same compound?
Answer: The GI50 was 6.09 µM.

Question: And the TGI [19]?
Answer: Its TGI is 19.1 µM.

Question: And the GI50 [20]?
Answer: Its GI50 is 3.45 µM.

Question: What about the TGI [20] of the same compound?
Answer: Its TGI is over 29.3 µM.

Question: And the GI50 [21]?
Answer: Its GI50 is 4.51 µM.

Question: What about the TGI [21] of the same compound?
Answer: The TGI was 15.3 µM.

Question: And the GI50 [22]?
Answer: Its GI50 is 0.131 µM.

Question: And the TGI [22]?
Answer: Its TGI is 24.6 µM.

Question: What about the GI50 [23] of the same compound?
Answer: Its GI50 is 6.85 µM.

Question: And the TGI [23]?
Answer: The TGI was over 29.3 µM.

Question: And the GI50 [24]?
Answer: The GI50 was 0.702 µM.

Question: And the TGI [24]?
Answer: Its TGI is 4.35 µM.

Question: What about the GI50 [25] of the same compound?
Answer: The GI50 was 3.68 µM.

Question: And the TGI [25]?
Answer: Its TGI is 10.8 µM.

Question: What about the GI50 [26] of the same compound?
Answer: Its GI50 is 0.364 µM.

Question: And the TGI [26]?
Answer: The TGI was 3.2 µM.

Question: And the GI50 [27]?
Answer: Its GI50 is 0.257 µM.

Question: And the TGI [27]?
Answer: Its TGI is over 29.3 µM.

Question: What about the GI50 [28] of the same compound?
Answer: Its GI50 is 3.4 µM.

Question: What about the TGI [28] of the same compound?
Answer: The TGI was 8.39 µM.

Question: What about the GI50 [29] of the same compound?
Answer: Its GI50 is 5.64 µM.

Question: And the TGI [29]?
Answer: Its TGI is 14.9 µM.

Source: PubChem BioAssay (NCI)
